Source: publication PMC6020689 (Angewandte Chemie (International ed. in English), 2018)

Biological target: EtCYP112 (Erwinia tracheiphila, UniProt A0A0M2KIP9)
Assay: GC-MS product analysis, reconstituted system
Assay type: biochemical
Settings: spinach Fd, EtFdR

| Structure (SMILES) | GC-MS product analysis, reconstituted system (NADPH in excess) | GC-MS product analysis, reconstituted system (NADPH) |
| --- | --- | --- |
| C=C1C[C@]23C[C@H]1CC[C@H]2[C@]1(C)CCC[C@@](C)(C(=O)O)[C@H]1[C@@H]3C(=O)O [GA12] | reconstituted system with purified ferredoxin reductase from E. tracheiphila (EtFdR) and spinach ferredoxin (Fd), converting GA12 | – |
| C=C1C[C@]23C[C@H]1CC[C@H]2[C@]1(C=O)CCC[C@@](C)(C(=O)O)[C@H]1[C@@H]3C(=O)O [GA24] | – | while GA15 and GA24 were readily converted to GA9, GA25 is not |
